The values below come from the RepoRT retention time repository (doi:10.1021/acs.analchem.2c02893).

SMILES strings stand for the structures.

The data set can be described thus: RP, Thermo Scientific Acclaim RSLC 120 C18, 100 × 2.1 mm, 2.2 µm, 30 °C, 0.2 mL/min, estimated dead time 1.1 min; A: 90% water + 10% methanol + 0.01% formic acid + 5 mM ammonium formate, pH 3.61; B: methanol + 0.01% formic acid + 5 mM ammonium formate, pH 3.61; gradient (min/%B) 0/1 1/1 2/39 13/99.9 15/99.9 15.1/1 20.1/1. The note with it: stereoisomer not certain.
As to `CCC1CN2CCC3(O)C(=Nc4cccc(OC)c43)C2CC1C(=COC)C(=O)OC` (stereo not given) [Mitragynine-7-Hydroxy], the LC retention time was 5.95 min.
The result for `CC1CC2C3CCC4=CC(=O)C=CC4(C)C3(F)C(O)CC2(C)C1(O)C(=O)CCl` (stereo not given) [Clobetasol] reads 9.44 min; that for `CCOc1c(N)c2c(c(OCC)c1OCC)C(C1c3c(cc4c(c3OC)OCO4)CCN1C)OC2=O` (stereo not given) [Tritoqualine], 12 min.
As to `CCc1nc(N)nc(N)c1-c1ccc(Cl)cc1` [Pyrimethamine], the LC retention time is 5.92 min.
On to `O=S(=O)(O)c1nc2ccccc2s1` [2-Benzothiazolesulfonic acid], for which the LC retention time was 4.48 min.
The result for `CC=CCC1=C(C)C(OC(=O)C2C(C=C(C)C(=O)OC)C2(C)C)CC1=O` (stereo not given) [Pyrethrins: Cinerin II] reads 11.6 min.
As for `CCNc1nc(NCC)[nH]c(=O)n1` [Simazine-2-hydroxy], the LC retention time is 4.21 min.
`CCCc1nn(C)c2c(=S)nc(-c3cc(S(=O)(=O)N4CCN(CC)CC4)ccc3OCC)[nH]c12` [Sildenafil Thiohomo]: the LC retention time is 10.6 min.
On to `OC(CNCC(O)C1CCc2cc(F)ccc2O1)C1CCc2cc(F)ccc2O1` (stereo not given) [Nebivolol], for which the LC retention time is 8.28 min.
Take `COc1ccccc1N1CCN(CCCC(=O)c2ccc(F)cc2)CC1` [Fluanisone]: the LC retention time is 6.41 min.
`CC(N)Cc1ccc2ccoc2c1` (stereo not given) [Benzofuran-6-ylpropan-2-amine<U+00A0>(6-APB)]: the LC retention time was 4.81 min.
With `CCOc1cc(C(C)(C)C)ccc1C1COC(c2c(F)cccc2F)=N1` (stereo not given) [Etoxazole], the LC retention time is 12.8 min.
As for `OC(Cn1cncn1)(Cn1cncn1)c1ccc(F)cc1F` [Fluconazole], the LC retention time is 5.06 min.
As for `CN(C)CCC=C1c2ccccc2COc2ccc(CC(=O)O)cc21` [Olopatadine], the LC retention time was 6.89 min.
On to `OCCOCCOCCN1CCN(C(c2ccccc2)c2ccc(Cl)cc2)CC1` (stereo not given) [Etodroxizine], for which the LC retention time is 8.33 min.
For the compound `COC(=O)C(NC(=O)c1nn(CC2CCCCC2)c2ccccc12)C(C)(C)C` (stereo not given) [MDMB-CHMINACA (MDMB-CHMICA)], the LC retention time is 12.9 min.
`CCOP(=O)(OCC)OP(=O)(OCC)OCC` [TEPP]: the LC retention time is 6.49 min.
On to `O=C1CN=C(c2ccccc2F)c2cc(Cl)ccc2N1CCO` [Flurazepam-2-OH-Ethyl], for which the LC retention time is 8.19 min.
Under `CCC(C(=O)c1ccc2c(c1)OCO2)N(C)C` (stereo not given) [Dibutylone] stands 4.38 min; under `CCOP(=S)(OCC)SCS(=O)(=O)C(C)(C)C` [Terbufos sulfone], 9.01 min; under `CC(C)(C)C(NC(=O)c1cn(CCCCCF)c2ccccc12)C(N)=O` (stereo not given) [ADBICA-5F], 9.72 min.
In the case of `CC[N+]([O-])(CC)CC(=O)Nc1c(C)cccc1C` [Lidocaine-N-oxide], the LC retention time is 5.34 min.
The result for `CC(C)C(NC(=O)c1nn(CCCCCF)c2ccccc12)C(N)=O` (stereo not given) [AB-PINACA 5F] reads 9.12 min.
As to `COC(=O)C(C)N(C(=O)c1ccco1)c1c(C)cccc1C` (stereo not given) [Furalaxyl], the LC retention time is 8.99 min.
Under `CNC(=O)Oc1ccccc1OC(C)C` [Propoxur] stands 6.94 min.
The result for `CN1CCC23c4c5ccc(OCCN6CCOCC6)c4OC2C(O)C=CC3C1C5` (stereo not given) [Pholcodine] reads 2.73 min; that for `CN(C)Cc1nnc2n1-c1ccc(Cl)cc1C(c1ccccc1)=NC2` [Adinazolam], 8.28 min; that for `CCC(N)Cc1c[nH]c2ccccc12` (stereo not drawn) [ET- alpha], 5.04 min.
The result for `CCCOC(=O)NCCCN(C)C` [Propamocarb] reads 3.5 min.
On to `CC1CCC2(OC1)OC1CC3C4CC=C5CC(O)CCC5(C)C4CCC3(C)C1C2C` (stereo not given) [Diosgenin], for which the LC retention time is 15.1 min.
For `CN(C)CCC(c1ccc(Cl)cc1)c1ccccn1` (stereo not given) [Chlorpheniramine], the LC retention time is 6.25 min.
Take `CC(C)NC(=O)N1CC(=O)N(c2cc(Cl)cc(Cl)c2)C1=O` [Iprodione]: the LC retention time was 10.5 min.
Under `CC(=O)SC1CC2=CC(=O)CCC2(C)C2CCC3(C)C(CCC34CCC(=O)O4)C12` (stereo not given) [Spironolactone] stands 9.24 min; under `COCCC(N)C(=O)O` (stereo not given) [AMB], 11.8 min; under `O=C(NC12CC3CC(CC(C3)C1)C2)c1nn(Cc2ccc(F)cc2)c2ccccc12` [FUB-AKB48], 13 min.
The result for `CNCCC=C1c2ccccc2COc2ccccc21` [Doxepin-Nor] reads 7.03 min; that for `CCCCCn1c(C)c(C(=O)c2cccc3ccccc23)c2ccccc21` [JWH-007], 12.6 min.
As to `CCCSc1nc(NC2CC2c2ccc(F)c(F)c2)c2nnn(C3CC(OCCO)C(O)C3O)c2n1` (stereo not given) [Ticagrelor], the LC retention time is 11.3 min.
Turning to `O=S(O)(O)=S` [THJ], the LC retention time is 13.7 min.
The result for `CN(C)CCOC(c1ccccc1)c1ccccc1` [Diphenhydramine] reads 6.63 min; that for `CCCSP(=O)(OCC)Oc1ccc(Br)cc1Cl` (stereo not given) [Profenophos], 12 min; that for `COc1cc(CCN)c(OC)cc1Br` [2C-B], 5.56 min.
Take `CCN(CC)C(=O)C1C=C2c3cccc4[nH]cc(c34)CC2NC1` (stereo not given) [LSD-Nor]: the LC retention time is 5.56 min.
Turning to `CCN(C(C)=O)c1cccc(-c2ccnc3c(C#N)cnn23)c1` [Zaleplon], the LC retention time is 6.61 min.
Regarding `CCCc1cc(=O)[nH]c(=S)[nH]1` [Propylthiouracil], the LC retention time was 4.51 min.
Under `CC1(C(=O)Nc2ccc(O)c(Cl)c2Cl)CCCCC1` [Fenhexamide] stands 10.1 min.
Under `CC1(C)CC1C(=O)NC(=CCCCCSCC(N)C(=O)O)C(=O)O` (stereo not given) [Cilastatin] stands 4.88 min; under `CCCCn1cc(C(=O)c2cccc3ccccc23)c2cccc(O)c21` [JWH-073-M-7-OH-Ind], 11.2 min; under `CC(Cc1ccccc1)NCCC#N` (stereo not given) [Fenproporex (NARL)], 4.14 min.
The result for `COc1cccc2c(C(=O)NC3C4(C)CCC(C4)C3(C)C)cn(CCN3CCOCC3)c12` (stereo not given) [MN-25] reads 11.7 min.
In the case of `COP(=S)(OC)Oc1ccc(C#N)cc1` [Cyanophos], the LC retention time is 8.27 min.
For the compound `O=C1OCC(O)=C1Cc1ccccc1` [Benzyltetronic acid (2-)], the LC retention time was 5.06 min.
Consider `Cc1cccc(C)c1OCC(C)N` (stereo not given) [Mexiletine], for which the LC retention time is 5.59 min.
The result for `CCC(=O)OC(Cc1ccccc1)(c1ccccc1)C(C)CNC` (stereo not given) [Nordextropropoxyphene] reads 7.84 min.
Consider `CCOP(=S)(OCC)SCSCC` [Phorate], for which the LC retention time is 11.4 min.
With `CCCCCn1cc(C(=O)c2cccc3ccccc23)c2ccccc21` [JWH-018], the LC retention time is 12.4 min.
The result for `CCCCOC(=O)c1ccccc1C(=O)OCc1ccccc1` [Phthalate-Benzyl butyl] reads 12.4 min; that for `CC[N+](CC)(CC(=O)Nc1c(C)cccc1C)Cc1ccccc1` [Denatonium], 12.3 min.
`CCOC(=O)N(C)C(=O)CSP(=S)(OCC)OCC` [Mecarbam]: the LC retention time was 10.2 min.
Under `COCC(C)N(C(=O)CS(=O)(=O)O)c1c(C)csc1C` (stereo not given) [Dimethenamide-ESA] stands 6.28 min; under `CCOP(=S)(OCC)Oc1ccc2c(C)c(Cl)c(=O)oc2c1` [Coumaphos], 11.2 min; under `CN(CCO)CC(O)Cn1cnc2c1c(=O)n(C)c(=O)n2C` (stereo not given) [Xanthinol], 2.99 min.
For the compound `COc1ccc(CC(C)N)cc1` (stereo not given) [PMA], the LC retention time is 4.34 min.
`Cc1ncsc1CCCl` [Clomethiazole]: the LC retention time is 6.69 min.
Under `CNC(CC(C)C)C(=O)NC1C(=O)NC(CC(N)=O)C(=O)NC2C(=O)NC3C(=O)NC(C(=O)NC(C(=O)O)c4cc(O)cc(O)c4-c4cc3ccc4O)C(O)c3ccc(c(Cl)c3)Oc3cc2cc(c3OC2OC(CO)C(O)C(O)C2OC2CC(C)(N)C(O)C(C)O2)Oc2ccc(cc2Cl)C1O` (stereo not given) [Vancomycin] stands 3.26 min; under `CCOc1ccc2c(c1)C(C)=CC(C)(C)N2` [Ethoxyquin], 10.1 min; under `Cc1ccc(NC=O)c(C)c1` [N-2-4-Dimethylphenylformamide (DMF. Metabolite Amitraz)], 6.67 min.
Under `CON=C1CC2(CC3CC(CC=C(C)CC(C)C=CC=C4COC5C(O)C(C)=CC(C(=O)O3)C45O)O2)OC(C(C)=CC(C)C)C1C` (stereo not given) [Moxidectin] stands 13.8 min.
Under `CCC(C)C1OC2(CCC1C)CC1CC(CC=C(C)C(OC3CC(OC)C(OC4CC(OC)C(O)C(C)O4)C(C)O3)C(C)C=CC=C3COC4C(O)C(C)=CC(C(=O)O1)C34O)O2` (stereo not given) [Ivermectin B1a] stands 14.4 min.
As to `O=C(Oc1cccc2ccccc12)c1cn(Cc2ccc(F)cc2)c2ccccc12` [FDU-PB-22], the LC retention time is 12.6 min.
The result for `O=C1CC2OCC=C3CN4CCC56c7ccccc7N1C5C2C3CC46` (stereo not given) [Strychnine] reads 4.16 min.
Under `O=C(c1cccc2ccccc12)c1nn(CCCCCF)c2ccccc12` [THJ-2201] stands 11.9 min; under `O=C1NCCN1Cc1ccc(Cl)nc1` [Imidacloprid-urea], 4.71 min; under `CC(O)CCn1cc(C(=O)c2cccc3ccccc23)c2ccccc21` (stereo not given) [JWH-073-M-3-OH-Butyl], 9.91 min.
As to `CN(C)CCCC1(c2ccc(F)cc2)OC(=O)c2cc(C#N)ccc21` (stereo not given) [Citalopram 3-oxo], the LC retention time is 6.6 min.
